We go through 15 molecules from patent publication US9499550B2 (BRISTOL-MYERS SQUIBB COMPANY, priority 2012, dated 2016).

The test system of test [1] is HCV genotype 1a (H77 strain) replicon in HUH-7 cells. As to the kind of experiment: HCV replicon luciferase reporter assay, genotype 1a. The test is classed as cell-based. Conditions: Hepatitis C virus, Huh-7, 72 h, HCV genotype 1a replicon luciferase, 3 days incubation. The essentials: (§1)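 Replicon inhibition for both genotypes was measured as Renilla luciferase signal (EnduRen, 7.5 μM final, 2 h) after 3-day, 37° C exposure of replicon-bearing HUH-7 cells in 4% FCS DMEM, 0.5% DMSO. The 1b construct carries S1179I; the 1a H77 construct carries P1496L and S2204I. Twenty-point, 3-fold dilutions were fitted four-parametrically for EC50, and CC50 was taken from multiplexed Cell Titer-Blue.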

For test [2], the system named is HCV genotype 1b (Con1) replicon in HUH-7 cells. In words: HCV replicon luciferase reporter assay, genotype 1b. Particulars: Hepatitis C virus, Huh-7, 72 h, HCV genotype 1b replicon luciferase, 3 days incubation. It counts as cell-based. The essentials: as §1
Where [3] appears, read: GETYPE1A, read-out: LE_1a (EC50, range).
Where [4] appears, read: GETYPE1B, read-out: LE_1b (EC50, range).

Broadly, the EC50 is the concentration at which the effect is half-maximal.

SMILES strings stand for the structures. Read-outs that look alike come from different tables or passages of the source.

For `COc1cnc(O[C@@H]2C[C@H]3C(=O)N[C@]4(C(=O)NS(=O)(=O)C5(CF)CC5)C[C@H]4/C=C\CC[C@@H](C)C[C@@H](C)[C@H](NC(=O)OC(C)(C)C)C(=O)N3C2)c2ccccc12` [Compound 4157, tert-butyl (2R,6S,7R,9R,13aS,14aR,16aS,Z)-14a-(1-(fluoromethyl)cyclopropylsulfonylcarbamoyl)-2-(4-methoxyisoquinolin-1-yloxy)-7,9-dimethyl-5,16-dioxo-1,2,3,5,6,7,8,9,10,11,13a,14,14a,15,16,16a-hexadecahydrocyclopropa[e]pyrrolo[1,2-a][1,4]diazacyclopentadecin-6-ylcarbamate], the EC50 is below 5.46 nM in test [1] (read-out: LE_1a (EC50, range)) and below 5.46 nM in test [2] (read-out: LE_1b (EC50, range)).

On to `C[C@@H]1CC/C=C\[C@@H]2C[C@@]2(C(=O)NS(=O)(=O)C2(C)CC2)NC(=O)[C@@H]2C[C@@H](Oc3ncc(OCC4CC4)c4ccccc34)CN2C(=O)[C@@H](NC(=O)OC(C)(C)C(F)(F)F)[C@H](C)C1` [Compound 4158], for which the EC50 in test [1] (setting [3]) and in test [2] (setting [4]) was below 5.46 nM in each case.

As to `COc1cc2ccnc(O[C@@H]3C[C@H]4C(=O)N[C@]5(C(=O)NS(=O)(=O)C6(CF)CC6)C[C@H]5/C=C\CC[C@@H](C)C[C@@H](C)[C@H](NC(=O)OC(C)(C)C)C(=O)N4C3)c2cc1F` [Compound 4159, tert-butyl (2R,6S,7R,9R,13aS,14aR,16aS,Z)-2-(7-fluoro-6-methoxyisoquinolin-1-yloxy)-14a-(1-(fluoromethyl)cyclopropylsulfonylcarbamoyl)-7,9-dimethyl-5,16-dioxo-1,2,3,5,6,7,8,9,10,11,13a,14,14a,15,16,16a-hexadecahydrocyclopropa[e]pyrrolo[1,2-a][1,4]diazacyclopentadecin-6-ylcarbamate], the EC50 is below 5.46 nM in test [1] (read-out: LE_1a (EC50, range)) and below 5.46 nM in test [2] (read-out: LE_1b (EC50, range)).

With `COc1cc2c(OC)cnc(O[C@@H]3C[C@H]4C(=O)N[C@]5(C(=O)NS(=O)(=O)C6(CF)CC6)C[C@H]5/C=C\CC[C@@H](C)C[C@@H](C)[C@H](NC(=O)OC(C)(C)C(F)(F)F)C(=O)N4C3)c2cc1F` [Compound 4160], the EC50 in test [1] (setting [3]) and in test [2] (setting [4]) was below 5.46 nM in each case.

In the case of `COc1cc2ccnc(O[C@@H]3C[C@H]4C(=O)N[C@]5(C(=O)NS(=O)(=O)C6(CF)CC6)C[C@H]5/C=C\CC[C@@H](C)C[C@@H](C)[C@H](NC(=O)OC(C)(C)C(F)(F)F)C(=O)N4C3)c2cc1F` [Compound 4161], the EC50 in test [1] (setting [3]) and in test [2] (setting [4]) was below 5.46 nM throughout.

For `COc1ccc2ncc(O[C@@H]3C[C@H]4C(=O)N[C@]5(C(=O)NS(=O)(=O)C6(C)CC6)C[C@H]5/C=C\CC[C@@H](C)C[C@@H](C)[C@H](NC(=O)OC(C)(C)C(F)(F)F)C(=O)N4C3)nc2c1` [Compound 4162], the EC50 in test [1] (setting [3]) and in test [2] (setting [4]) was below 5.46 nM in each case.

For the molecule `COc1ccc2nc(O[C@@H]3C[C@H]4C(=O)N[C@]5(C(=O)NS(=O)(=O)C6(C)CC6)C[C@H]5/C=C\CC[C@@H](C)C[C@@H](C)[C@H](NC(=O)OC(C)(C)C(F)(F)F)C(=O)N4C3)cnc2c1` [Compound 4163], the EC50 in test [1] (GETYPE1A, read-out: LE_1a (EC50)) was 9.8 nM; in test [1] (setting [3]), 4.82 to 103 nM; in test [2] (GETYPE1B, read-out: LE_1b (EC50)), 1.89 nM; in test [2] (setting [4]), below 5.46 nM.

Regarding `COc1cc2c(OC)cnc(O[C@@H]3C[C@H]4C(=O)N[C@]5(C(=O)NS(=O)(=O)C6(C)CC6)C[C@H]5/C=C\CC[C@@H](C)C[C@@H](C)[C@H](NC(=O)OC(C)(C)C(F)(F)F)C(=O)N4C3)c2cc1F` [Compound 4164], the EC50 in test [1] (setting [3]) and in test [2] (setting [4]) was below 5.46 nM throughout.

On to `COc1cc2ccnc(O[C@@H]3C[C@H]4C(=O)N[C@]5(C(=O)NS(=O)(=O)C6(CF)CC6)C[C@H]5/C=C\CC[C@@H](C)C[C@@H](C)[C@H](NC(=O)C(C)(C)C)C(=O)N4C3)c2cc1F` [Compound 4165, (2R,6S,7R,9R,13aS,14aR,16aS,Z)-2-(7-fluoro-6-methoxyisoquinolin-1-yloxy)-N-(1-(fluoromethyl)cyclopropylsulfonyl)-7,9-dimethyl-5,16-dioxo-6-pivalamido-1,2,3,5,6,7,8,9,10,11,13a,14,14a,15,16,16a-hexadecahydrocyclopropa[e]pyrrolo[1,2-a][1,4]diazacyclopentadecine-14a-carboxamide], for which the EC50 is below 5.46 nM in test [1] (read-out: LE_1a (EC50, range)) and below 5.46 nM in test [2] (read-out: LE_1b (EC50, range)).

For the molecule `C[C@@H]1CC/C=C\[C@@H]2C[C@@]2(C(=O)NS(=O)(=O)C2CC2)NC(=O)[C@@H]2C[C@@H](Oc3ncc(OCC4CC4)c4ccc(F)cc34)CN2C(=O)[C@@H](NC(=O)OC(C)(C)C)[C@H](C)C1` [Compound 4166, tert-butyl (2R,6S,7R,9R,13aS,14aR,16aS,Z)-2-(4-(cyclopropylmethoxy)-7-fluoroisoquinolin-1-yloxy)-14a-(cyclopropylsulfonylcarbamoyl)-7,9-dimethyl-5,16-dioxo-1,2,3,5,6,7,8,9,10,11,13a,14,14a,15,16,16a-hexadecahydrocyclopropa[e]pyrrolo[1,2-a][1,4]diazacyclopentadecin-6-ylcarbamate], the EC50 in test [1] (read-out: LE_1a (EC50, range)) is below 5.46 nM; in test [2] (read-out: LE_1b (EC50, range)), below 5.46 nM.

`COc1ccc2c(O[C@@H]3C[C@H]4C(=O)N[C@]5(C(=O)NS(=O)(=O)C6(CF)CC6)C[C@H]5/C=C\CC[C@@H](C)C[C@@H](C)[C@H](NC(=O)OC(C)(C)C)C(=O)N4C3)nc(-c3ccc(OC(C)C)cc3)cc2c1` [Compound 4167, tert-butyl (2R,6S,7R,9R,13aS,14aR,16aS,Z)-14a-(1-(fluoromethyl)cyclopropylsulfonylcarbamoyl)-2-(3-(4-isopropoxyphenyl)-6-methoxyisoquinolin-1-yloxy)-7,9-dimethyl-5,16-dioxo-1,2,3,5,6,7,8,9,10,11,13a,14,14a,15,16,16a-hexadecahydrocyclopropa[e]pyrrolo[1,2-a][1,4]diazacyclopentadecin-6-ylcarbamate]: the EC50 is below 5.46 nM in test [1] (read-out: LE_1a (EC50, range)) and below 5.46 nM in test [2] (read-out: LE_1b (EC50, range)).

Take `COc1cc2ccnc(O[C@@H]3C[C@H]4C(=O)N[C@]5(C(=O)NS(=O)(=O)C6CC6)C[C@H]5/C=C\CC[C@@H](C)C[C@@H](C)[C@H](NC(=O)OC(C)(C)C(F)(F)F)C(=O)N4C3)c2cc1F` [Compound 4169]: the EC50 in test [1] (setting [3]) and in test [2] (setting [4]) was below 5.46 nM throughout.

Regarding `COc1ccc2ncc(O[C@@H]3C[C@H]4C(=O)N[C@]5(C(=O)NS(=O)(=O)C6(CF)CC6)C[C@H]5/C=C\CC[C@@H](C)C[C@@H](C)[C@H](NCC(F)F)C(=O)N4C3)nc2c1` [Compound 4170], the EC50 is above 87.4 nM in test [1] (read-out: LE_1a (EC50, range)) and 4.82 to 103 nM in test [2] (read-out: LE_1b (EC50, range)).

For the molecule `COc1ccc2c(O[C@@H]3C[C@H]4C(=O)N[C@]5(C(=O)NS(=O)(=O)C6(CF)CC6)C[C@H]5/C=C\CC[C@@H](C)C[C@@H](C)[C@H](NC(=O)c5ccncc5F)C(=O)N4C3)ncc(OC)c2c1` [Compound 4171, (2R,6S,7R,9R,13aS,14aR,16aS,Z)-2-(4,6-dimethoxyisoquinolin-1-yloxy)-6-(3-fluoroisonicotinamido)-N-(1-(fluoromethyl)cyclopropylsulfonyl)-7,9-dimethyl-5,16-dioxo-1,2,3,5,6,7,8,9,10,11,13a,14,14a,15,16,16a-hexadecahydrocyclopropa[e]pyrrolo[1,2-a][1,4]diazacyclopentadecine-14a-carboxamide], the EC50 in test [1] (read-out: LE_1a (EC50, range)) was below 5.46 nM; in test [2] (read-out: LE_1b (EC50, range)) it was below 5.46 nM.

`COc1ccc2c(O[C@@H]3C[C@H]4C(=O)N[C@]5(C(=O)NS(=O)(=O)C6(C)CC6)C[C@H]5/C=C\CC[C@@H](C)C[C@@H](C)[C@H](NC(=O)OC(C)(C)C(F)(F)F)C(=O)N4C3)cc(-c3ccc(OC(C)C)cc3)nc2c1` [Compound 4172]: the EC50 in test [1] (setting [3]) and in test [2] (setting [4]) was below 5.46 nM each time.
